How the values were obtained:
human GR [1] = target: T1, human GR (Homo sapiens, UniProt P04150); assay: Trans-Activation Modulation of Glucocorticoid Receptor (GRAMMER), MMTV-LUC reporter, agonist mode; type: cell-based; set-up: endogenous in cells; conditions: for Emax: A549, A549 cells, maximum activity, read-out: Transactivation A549 Cells GRAMMER Emax; for EC50: A549 cells, inflection point, read-out: Transactivation A549 Cells GRAMMER IP
T1 sequence (P04150 1-777): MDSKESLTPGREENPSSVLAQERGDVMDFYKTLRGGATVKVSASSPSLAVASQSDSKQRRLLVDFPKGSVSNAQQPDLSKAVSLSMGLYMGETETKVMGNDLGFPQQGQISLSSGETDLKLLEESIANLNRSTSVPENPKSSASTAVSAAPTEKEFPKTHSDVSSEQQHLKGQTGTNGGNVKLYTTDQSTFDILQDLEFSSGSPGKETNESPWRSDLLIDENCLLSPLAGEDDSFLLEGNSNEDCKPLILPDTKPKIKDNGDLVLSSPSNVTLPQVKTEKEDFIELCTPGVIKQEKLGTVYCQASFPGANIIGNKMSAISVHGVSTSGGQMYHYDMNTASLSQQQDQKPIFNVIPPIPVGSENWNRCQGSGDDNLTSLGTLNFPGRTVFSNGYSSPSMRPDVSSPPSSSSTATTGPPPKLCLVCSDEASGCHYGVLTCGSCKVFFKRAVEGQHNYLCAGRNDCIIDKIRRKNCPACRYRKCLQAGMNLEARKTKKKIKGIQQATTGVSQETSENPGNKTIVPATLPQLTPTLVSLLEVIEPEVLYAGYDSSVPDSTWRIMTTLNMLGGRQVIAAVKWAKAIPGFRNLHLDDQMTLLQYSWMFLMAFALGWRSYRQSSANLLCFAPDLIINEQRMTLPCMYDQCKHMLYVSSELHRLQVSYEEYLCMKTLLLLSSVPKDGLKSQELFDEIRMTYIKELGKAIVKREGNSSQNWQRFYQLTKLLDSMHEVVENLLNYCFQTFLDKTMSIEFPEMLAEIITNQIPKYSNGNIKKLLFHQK
Description: This assay assesses the ability of test compounds to control transcription from the MMTV-LUC reporter gene in lung adenocarcinoma A549 cells or MDA-MB-453 cells, a human breast cancer cell line that naturally expresses the human GR. The assay measures induction of a modified MMTV LTR/promoter linked to the LUC reporter gene.
The routine transient assay consists of plating 7,000-25,000 cells/well of a white, clear-bottom 96-well plate. Alternatively, 384-well plates can be used at a cell concentration of 10,000/well. The media that the cells are plated in is “exponential growth medium” which consists of phenol red-free RPMI1640 containing 10% FBS, 4 mM L-glutamine, 20 mM HEPES, 10 ug/mL human insulin, and 20 ug/mL gentamicin. Incubator conditions are 37° C. and 5% CO2. The transfection is done in batch mode. The cells are trypsinized and counted to the right cell number in the proper amount of fresh media. It is then gently mixed with the FuGene6/DNA mix and plated onto the 96 or 384-well plate, all the wells receive 100 uL or 40 uL, respectively, of medium+lipid/DNA complex then incubated 37° C. overnight. The transfection cocktail consists of serum-free OptiMEM, FuGene6 reagent and DNA. The manufacturer's (Roche Biochemical) protocol for cocktail setup is as follows: The lipid to DNA ratio is approximately 2.5:1 and the incubation time is 20 min at room temperature. Sixteen to 24 hours after transfection, the cells are treated with dexamethasone to a final concentration of 10 nM as well as the compound of interest, such that final DMSO (vehicle) concentration is equal to or less than 1%. Each plate also contains samples that are treated with 10 nM dexamethasone alone, which is used as the 100% activity control. The cells are exposed to the compounds for 24 hours. After 24 hours, the cells are lysed by a Promega cell culture lysis buffer for approximately 30 min and then the luciferase activity in the extracts is assayed in the 96-well format luminometer. In 384-well format, Steady-Glo (Promega) or Steady-Lite (PerkinElmer) can be used by adding an equal volume of reagent to the media present in each well. Activity induced by 10 nM dexamethasone alone is set at 100% activity. Antagonist activity is calculated by determining the decrease in dexamethasone-induced activity in response to compound treatment relative to samples that were treated with dexamethasone alone. […] This transactivation assay can be performed in an agonist and antagonist mode to identify these different activities.

human GR [2] = target: T1, human GR; assay: Transrepression Assay (GITAR), TNFα-β-lactamase reporter in U937 cells; type: cell-based; set-up: U937 cells contain an endogenous glucocorticoid receptor (GR); endogenous in cells; host or cells: U937 cells stably transfected with the TNF-alpha promoter/beta-lactamase reporter; conditions: for GITAR > GRAMM % SEP: GITAR Emax minus GRAMMER Emax; for EC50: U937 cells, inflection point, read-out: Transrepression U937 Cells GITAR IP
Description: This assay assesses the ability of test compounds to control transcription from the TNFα-β-lactamase reporter gene in U937 cells, a human myelomonocytic leukemia cell line that naturally expresses the human GR. The assay measures compound dependent-repression of the TNFa promoter linked to a reporter gene.
The human U937 cells that had been stablely transfected with the TNF-α promoter driving β-lactamase are used for this assay. U937 cells contain an endogenous glucocorticoid receptor (GR). Cells are maintained in RPMI 1640 Growth medium (Gibco Cat#11875-093) containing 25 mM HEPES, 10% FBS, 2 mM L-Glutamine, 1 mM Sodium pyruvate, 25 μg/ml Gentamicin (Gibco Cat#15710-064), 1:1000 2-Mercaptoethanol (Gibco Cat#21985-023) and 0.8 mg/ml G418 (Gibco Cat#10131-027). The density of the cells in the flask needs to be about 1×10^6−3×10^6/ml at the time of harvest. Usually, the cells are split to 1.2˜1.4×10^5/ml (1:10) 3 days prior to the assay. 50,000 cells/well are plated in 96 well black-walled plates the day of assay. Test compounds are added 10 μL/well, and cells are incubated at 37° C. for 30˜45 min. For assaying compounds, first dilute 1:10 in DMSO to make 1 mM, then further dilute 1:100 in medium to make 10× stock prior to adding to the cells. Add 50 ng/mlPMA (Sigma, cat# P8139) 10 μL/well to a final concentration 5 ng/ml, and 1 μg/ml LPS (Sigma, cat# L4130) 10 μL/well to a final concentration 100 ng/ml. Incubate cells at 37° C. overnight for ˜18 hr. PMA is stored frozen as 100 μg/ml stock in DMSO. Dilute 1:10 in DMSO for a working stock of 10 μg/ml and store at −20 C. For assaying, dilute the 10 μg/ml working stock 1:200 in medium to make a 10× solution (50 ng/ml). Store frozen LPS at 1 mg/ml in PBS, dilute 1:1000 in medium to make 10× (1 μg/ml) for the assay. Add 6× loading buffer (CCF2-AM) 20 μL/well, and incubate at room temperature for 70˜90 min. […] The activity repressed by 100 nM dexamethasone alone is set as 100% activity.

[3] = U-937, U937 cells, maximum activity, read-out: Transrepression U937 Cells GITAR Emax
[4] = U-937, activity repressed by 100 nM dexamethasone alone set as 100%, read-out: maximal activity in the transrepression (GITAR) assay

C[C@]12Cc3cnn(-c4ccc(F)cc4)c3C=C1CC[C@@H]2CN(CC1CC1)S(=O)(=O)c1cc(C(F)(F)F)ccc1Cl [Example 5, 2-chloro-N-(cyclopropylmethyl)-N-{[(4αR,5S)-1-(4-fluorophenyl)-4α-methyl-1,4,4α,5,6,7-hexahydrocyclopenta[f]indazol-5-yl]methyl}-5-(trifluoromethyl)benzenesulfonamide]
Emax (human GR [1]): 2.9%
EC50 (human GR [1]): 422 nM
GITAR > GRAMM % SEP (human GR [2]): 16.2%
EC50 (human GR [2]): 223 nM
Emax (human GR [2]; [3]): 19.2%
Emax (human GR [2]; [4]): > 5%

CC(=O)Nc1ccc(S(=O)(=O)N(CC2CC2)C[C@H]2CCC3=Cc4c(cnn4-c4ccc(F)cc4)C[C@@]32C)cc1 [Example 6, N-{4-[((cyclopropylmethyl){[(4αR,5S)-1-(4-fluorophenyl)-4α-methyl-1,4,4α,5,6,7-hexahydrocyclopenta[f]indazol-5-yl]methyl}amino)sulfonyl]phenyl}acetamide]
Emax (human GR [1]): 13%
EC50 (human GR [1]): 402 nM
GITAR > GRAMM % SEP (human GR [2]): 36.0%
EC50 (human GR [2]): 1010 nM
Emax (human GR [2]; [3]): 49%
Emax (human GR [2]; [4]): > 5%

Cc1nn(C)c(Cl)c1S(=O)(=O)N(CC1CC1)C[C@H]1CCC2=Cc3c(cnn3-c3ccc(F)cc3)C[C@@]21C [Example 7]
Emax (human GR [1]): 36.3%
EC50 (human GR [1]): 351 nM
GITAR > GRAMM % SEP (human GR [2]): 19.7%
EC50 (human GR [2]): 389 nM
Emax (human GR [2]; [3]): 56%
Emax (human GR [2]; [4]): > 5%

CN1CCOc2cc(S(=O)(=O)N(CC3CC3)C[C@H]3CCC4=Cc5c(cnn5-c5ccc(F)cc5)C[C@@]43C)ccc21 [Example 8, N-(cyclopropylmethyl)-N-{[(4αR,5S)-1-(4-fluorophenyl)-4α-methyl-1,4,4α,5,6,7-hexahydrocyclopenta[f]indazol-5-yl]methyl}-4-methyl-3,4-dihydro-2H-1,4-benzoxazine-7-sulfonamide]
Emax (human GR [1]): 4.9%
EC50 (human GR [1]): 37 nM
GITAR > GRAMM % SEP (human GR [2]): 12.4%
EC50 (human GR [2]): 424 nM
Emax (human GR [2]; [3]): 17.4%
Emax (human GR [2]; [4]): > 5%

CCCCCc1ccc(S(=O)(=O)N(CC2CC2)C[C@H]2CCC3=Cc4c(cnn4-c4ccc(F)cc4)C[C@@]32C)cc1 [Example 9, N-(cyclopropylmethyl)-N-{[(4αR,5S)-1-(4-fluorophenyl)-4α-methyl-1,4,4α,5,6,7-hexahydrocyclopenta[f]indazol-5-yl]methyl}-4-pentylbenzenesulfonamide]
Emax (human GR [1]): 12.7%
EC50 (human GR [1]): 1130 nM
GITAR > GRAMM % SEP (human GR [2]): 15.4%
EC50 (human GR [2]): 959 nM
Emax (human GR [2]; [3]): 28.1%
Emax (human GR [2]; [4]): > 5%

C[C@]12Cc3cnn(-c4ccc(F)cc4)c3C=C1CC[C@@H]2CN(CC1CC1)S(=O)(=O)c1ccc(-c2ccccc2)cc1 [Example 10, N-(cyclopropylmethyl)-N-{[(4αR,5S)-1-(4-fluorophenyl)-4α-methyl-1,4,4α,5,6,7-hexahydrocyclopenta[f]indazol-5-yl]methyl}biphenyl-4-sulfonamide]
Emax (human GR [1]): 12.3%
EC50 (human GR [1]): 615 nM
GITAR > GRAMM % SEP (human GR [2]): 34.4%
EC50 (human GR [2]): 465 nM
Emax (human GR [2]; [3]): 46.6%
Emax (human GR [2]; [4]): > 5%

Cc1noc(C)c1S(=O)(=O)N(CC1CC1)C[C@H]1CCC2=Cc3c(cnn3-c3ccc(F)cc3)C[C@@]21C [Example 11, N-(cyclopropylmethyl)-N-{[(4αR,5S)-1-(4-fluorophenyl)-4α-methyl-1,4,4α,5,6,7-hexahydrocyclopenta[f]indazol-5-yl]methyl}-3,5-dimethylisoxazole-4-sulfonamide]
Emax (human GR [1]): 66%
EC50 (human GR [1]): 235 nM
GITAR > GRAMM % SEP (human GR [2]): 23.1%
EC50 (human GR [2]): 206 nM
Emax (human GR [2]; [3]): 89.1%
Emax (human GR [2]; [4]): > 5%

CCCS(=O)(=O)N(CCOC)C[C@H]1CCC2=Cc3c(cnn3-c3ccc(F)cc3)C[C@@]21C [Example 95, N-{[(4αR,5S)-1-(4-fluorophenyl)-4α-methyl-1,4,4α,5,6,7-hexahydrocyclopenta[f]indazol-5-yl]methyl}-N-(2-methoxyethyl)propane-1-sulfonamide]
Emax (human GR [1]): 70.4%
EC50 (human GR [1]): 559 nM
GITAR > GRAMM % SEP (human GR [2]): 2.7%
EC50 (human GR [2]): 464 nM
Emax (human GR [2]; [3]): 73.1%
Emax (human GR [2]; [4]): > 5%

COCCN(C[C@H]1CCC2=Cc3c(cnn3-c3ccc(F)cc3)C[C@@]21C)S(C)(=O)=O [Example 96, N-{[(4αR,5S)-1-(4-fluorophenyl)-4α-methyl-1,4,4α,5,6,7-hexahydrocyclopenta[f]indazol-5-yl]methyl}-N-(2-methoxyethyl)methanesulfonamide]
Emax (human GR [1]): 65.7%
EC50 (human GR [1]): 152 nM
GITAR > GRAMM % SEP (human GR [2]): 19.3%
EC50 (human GR [2]): 124 nM
Emax (human GR [2]; [3]): 85%
Emax (human GR [2]; [4]): > 5%

COCCN(C[C@H]1CCC2=Cc3c(cnn3-c3ccc(F)cc3)C[C@@]21C)S(=O)(=O)CC(F)(F)F [Example 97, 2,2,2-trifluoro-N-{[(4αR,5S)-1-(4-fluorophenyl)-4α-methyl-1,4,4α,5,6,7-hexahydrocyclopenta[f]indazol-5-yl]methyl}-N-(2-methoxyethyl)ethanesulfonamide]
Emax (human GR [1]): 83.8%
EC50 (human GR [1]): 48.9 nM
GITAR > GRAMM % SEP (human GR [2]): 2.2%
EC50 (human GR [2]): 49 nM
Emax (human GR [2]; [3]): 85.9%
Emax (human GR [2]; [4]): > 5%
